Data taken from patent publication US20070099890A1, “Novel cephalosporin derivatives, its pharmaceutically acceptable salts and manufacturing process thereof” (priority 2003, published 2007).
≈ marks a conversion by molar mass, not a printed value. Where two headings read alike, the source gives them in different places.

What was measured:
Test in all cases: In vitro antibacterial activity test (2-fold agar dilution MIC)
Assay type in all cases: cell-based
Settings in all cases: for MIC: read-out: Minimum inhibitory concentrations (MICs)
[1] = system: Staphylococcus aureus 005 (MRSA)
Description: (§1) The in vitro antibacterial activity of the compounds prepared in the Examples of the invention was determined as follows: after incubation of the corresponding bacterium for 18 h at 37° C., minimum inhibitory concentrations (MICs, μg/mL) were determined by the 2-fold agar dilution method with Mueller-Hinton Agar.

[2] = system: Staphylococcus aureus 010 (MRSA)
Description: as §1

[3] = system: Staphylococcus aureus 002 (MRSA)
Description: as §1

[4] = system: Staphylococcus aureus 003 (MRSA)
Description: as §1

[5] = system: Staphylococcus aureus 001 (MRSA)
Description: as §1

[6] = system: Staphylococcus aureus 008 (MRSA)
Description: as §1

[7] = system: Staphylococcus aureus 004 (MRSA)
Description: as §1

[8] = system: Staphylococcus aureus 007 (MRSA)
Description: as §1

[9] = system: Staphylococcus aureus 009 (MRSA)
Description: as §1

[10] = system: Staphylococcus aureus 006 (MRSA)
Description: as §1

[11] = MRSA Staphylococcus aureus 005, 2-fold agar dilution, Mueller-Hinton Agar, 18 h at 37° C.
[12] = MRSA Staphylococcus aureus 010, 2-fold agar dilution, Mueller-Hinton Agar, 18 h at 37° C.
[13] = MRSA Staphylococcus aureus 002, 2-fold agar dilution, Mueller-Hinton Agar, 18 h at 37° C.
[14] = MRSA Staphylococcus aureus 003, 2-fold agar dilution, Mueller-Hinton Agar, 18 h at 37° C.
[15] = MRSA Staphylococcus aureus 001, 2-fold agar dilution, Mueller-Hinton Agar, 18 h at 37° C.
[16] = MRSA Staphylococcus aureus 008, 2-fold agar dilution, Mueller-Hinton Agar, 18 h at 37° C.
[17] = MRSA Staphylococcus aureus 004, 2-fold agar dilution, Mueller-Hinton Agar, 18 h at 37° C.
[18] = MRSA Staphylococcus aureus 007, 2-fold agar dilution, Mueller-Hinton Agar, 18 h at 37° C.
[19] = MRSA Staphylococcus aureus 009, 2-fold agar dilution, Mueller-Hinton Agar, 18 h at 37° C.
[20] = MRSA Staphylococcus aureus 006, 2-fold agar dilution, Mueller-Hinton Agar, 18 h at 37° C.
[21] = Staphylococcus aureus, MRSA, 18 h

## O=C(CSc1ccccc1)N[C@@H]1C(=O)N2C(C(=O)O)=C(C=Cc3cc(-c4ccc(Br)cc4)no3)CS[C@H]12 [Compound 30]
[1]; [11]
  Minimum inhibitory concentrations (MICs): 0.098 µg/mL (≈ 0.164 µM)
[2]; [12]
  Minimum inhibitory concentrations (MICs): 0.195 µg/mL (≈ 0.326 µM)
[3]; [13]
  Minimum inhibitory concentrations (MICs): 0.002 µg/mL (≈ 0.00334 µM)
[4]; [14]
  Minimum inhibitory concentrations (MICs): 6.250 µg/mL (≈ 10.4 µM)
[5]; [15]
  Minimum inhibitory concentrations (MICs): 3.125 µg/mL (≈ 5.22 µM)
[6]; [16]
  Minimum inhibitory concentrations (MICs): 0.195 µg/mL (≈ 0.326 µM)
[7]; [17]
  Minimum inhibitory concentrations (MICs): 3.125 µg/mL (≈ 5.22 µM)
[8]; [18]
  Minimum inhibitory concentrations (MICs): <0.002 µg/mL
[9]; [19]
  Minimum inhibitory concentrations (MICs): 0.195 µg/mL (≈ 0.326 µM)
[10]; [20]
  Minimum inhibitory concentrations (MICs): 0.004 µg/mL (≈ 0.00668 µM)

## CO/N=C(\C(=O)N[C@@H]1C(=O)N2C(C(=O)O)=C(COC(C)=O)CS[C@H]12)c1csc(N)n1 [cefotaxime]
[1]; [11]
  MIC: 6.25 µg/mL (≈ 13.7 µM)
[2]; [12]
  MIC: 6.25 µg/mL (≈ 13.7 µM)
[3]; [13]
  MIC: 3.12 µg/mL (≈ 6.86 µM)
[4]; [14]
  MIC: > 100 µg/mL
[5]; [15]
  MIC: 25 µg/mL (≈ 54.9 µM)
[6]; [16]
  MIC: 1.56 µg/mL (≈ 3.43 µM)
[7]; [17]
  MIC: > 10 µg/mL
[8]; [18]
  MIC: 1.56 µg/mL (≈ 3.43 µM)
[9]; [19]
  MIC: 6.25 µg/mL (≈ 13.7 µM)
[10]; [20]
  MIC: 1.56 µg/mL (≈ 3.43 µM)

## CN[C@H](CC(C)C)C(=O)N[C@H]1C(=O)N[C@@H](CC(N)=O)C(=O)N[C@H]2C(=O)N[C@H]3C(=O)N[C@H](C(=O)N[C@H](C(=O)O)c4cc(O)cc(O)c4-c4cc3ccc4O)[C@H](O)c3ccc(c(Cl)c3)Oc3cc2cc(c3O[C@@H]2O[C@H](CO)[C@@H](O)[C@H](O)[C@H]2O[C@H]2C[C@](C)(N)[C@H](O)[C@H](C)O2)Oc2ccc(cc2Cl)[C@H]1O [vancomycin]
[1]; [21]
  MIC: 0.781 µg/mL (≈ 0.539 µM)
[2]; [21]
  MIC: 0.781 µg/mL (≈ 0.539 µM)
[3]; [21]
  MIC: 1.56 µg/mL (≈ 1.08 µM)
[4]; [21]
  MIC: 0.781 µg/mL (≈ 0.539 µM)
[5]; [21]
  MIC: 3.12 µg/mL (≈ 2.16 µM)
[6]; [21]
  MIC: 0.781 µg/mL (≈ 0.539 µM)
[7]; [21]
  MIC: 0.781 µg/mL (≈ 0.539 µM)
[8]; [21]
  MIC: 0.781 µg/mL (≈ 0.539 µM)
[9]; [21]
  MIC: 0.781 µg/mL (≈ 0.539 µM)
[10]; [21]
  MIC: 0.781 µg/mL (≈ 0.539 µM)
